Data on one compound can be found in patent publication US20100215625A1, “EFFICIENT PREPARATION OF NAPHTHOQUINONE ANTICANCER ACTIVE INGREDIENTS” (TAHEEBO JAPAN CO., LTD., priority 2009, published 2010).

The test system of series [1] is MCF-7 cells (breast cancer cells). As to the kind of experiment: Cytotoxicity experiment 2: anticancer activity against MCF-7 cells, viable cell count after 3 days. As to conditions: Homo sapiens, MCF7, 72 h, read-out: Cell Viabilities (%) of MCF-7 (Breast Cancer Cells).
Method: A-549 cells (lung cancer cells; Strain No. ECACC86012804; available from Laboratory Products Dept. of Dainippon Pharmaceuticals Inc. (now Dainippon Sumitomo Pharma Co., Ltd.)) were preliminarily seeded in 35 mm petri dishes containing Dulbecco's modified Eagle medium (DMEM) containing 20% of fetal bovine serum (FBS) in a concentration of 1×10^5/ml. The seeded cells were incubated at 36° C. for 1 day under 5% CO2 and were confirmed to be stuck at the bottom of the petri dishes. […] These groups were incubated at 36° C. for 3 days, and viable cells were counted and viabilities were calculated.
Cytotoxicity experiments for MCF-7 cells (breast cancer cells; Strain No. ECACC86012803; available from Laboratory Products Dept. of Dainippon Pharmaceuticals Inc. (now Dainippon Sumitomo Pharma Co., Ltd.)) were carried out in the similar manner to the Experiment 1.
The test system of a further series is various tumor cells. As to conditions: known from Patent Documents 1, 2 and Nonpatent Document 1; cited from earlier work.
The subject of series [2] is A-549 cells (lung cancer cells). Description: Cytotoxicity experiment 1: anticancer activity against A-549 cells, viable cell count after 3 days. The settings on record: Homo sapiens, A549, 72 h, read-out: Cell Viabilities (%) of A-549 (Lung Cancer Cells).
Method: A-549 cells (lung cancer cells; Strain No. ECACC86012804; available from Laboratory Products Dept. of Dainippon Pharmaceuticals Inc. (now Dainippon Sumitomo Pharma Co., Ltd.)) were preliminarily seeded in 35 mm petri dishes containing Dulbecco's modified Eagle medium (DMEM) containing 20% of fetal bovine serum (FBS) in a concentration of 1×10^5/ml. The seeded cells were incubated at 36° C. for 1 day under 5% CO2 and were confirmed to be stuck at the bottom of the petri dishes. The resulting A-549 cells were divided into three groups, to the first group of which were added extracts from a medium used in the ingredient-production system in concentrations of 1, 10, 100 and 1000 μg/ml, to the second group of which was added NQ801 which was known to have an anticancer activity (see Patent Document 2) in said concentrations, and to the third group of which were added ether fractions extracted from Tabebuia avellanedae barks in a conventional manner in said concentrations. These groups were incubated at 36° C. for 3 days, and viable cells were counted and viabilities were calculated.

With `C[C@H](O)c1cc2c(o1)C(=O)c1cccc(O)c1C2=O` [NQ801, (S)-2-(1-hydroxyethyl)-5-hydroxynaphtho[2,3-b]furan-4,9-dione], in series [1], the viability at 1 µg/mL amounted to 90%, the viability at 10 µg/mL was 60%, the viability at 100 µg/mL came out at 20% and the viability at 1000 µg/mL came to 0%. Further, the “Cytotoxicity against various tumor cells” value with various tumor cells is reported as “potent cytotoxicity”. Further, in series [2], the viability at 1 µg/mL was 90%, the viability at 10 µg/mL was 60%, the viability at 100 µg/mL was 30% and the viability at 1000 µg/mL stood at 0%.
